Laboratory results taken from ChEMBL document CHEMBL3124838, “Discovery of 6-aryl-azabenzimidazoles that inhibit the TBK1/IKK-ε kinases” (Bioorg Med Chem Lett, 2014).

Key:
[1] = target: RAC-beta serine/threonine-protein kinase (Homo sapiens) (UniProt P31751); test: Inhibition of human PKBbeta assessed as residual activity at 1 uM relative to control
[2] = target: Fibroblast growth factor receptor 4 (Homo sapiens) (UniProt P22455); test: Inhibition of human FGFR4 assessed as residual activity at 1 uM relative to control
Sequence of Fibroblast growth factor receptor 4 (Homo sapiens) (P22455 22-802 limits assumed): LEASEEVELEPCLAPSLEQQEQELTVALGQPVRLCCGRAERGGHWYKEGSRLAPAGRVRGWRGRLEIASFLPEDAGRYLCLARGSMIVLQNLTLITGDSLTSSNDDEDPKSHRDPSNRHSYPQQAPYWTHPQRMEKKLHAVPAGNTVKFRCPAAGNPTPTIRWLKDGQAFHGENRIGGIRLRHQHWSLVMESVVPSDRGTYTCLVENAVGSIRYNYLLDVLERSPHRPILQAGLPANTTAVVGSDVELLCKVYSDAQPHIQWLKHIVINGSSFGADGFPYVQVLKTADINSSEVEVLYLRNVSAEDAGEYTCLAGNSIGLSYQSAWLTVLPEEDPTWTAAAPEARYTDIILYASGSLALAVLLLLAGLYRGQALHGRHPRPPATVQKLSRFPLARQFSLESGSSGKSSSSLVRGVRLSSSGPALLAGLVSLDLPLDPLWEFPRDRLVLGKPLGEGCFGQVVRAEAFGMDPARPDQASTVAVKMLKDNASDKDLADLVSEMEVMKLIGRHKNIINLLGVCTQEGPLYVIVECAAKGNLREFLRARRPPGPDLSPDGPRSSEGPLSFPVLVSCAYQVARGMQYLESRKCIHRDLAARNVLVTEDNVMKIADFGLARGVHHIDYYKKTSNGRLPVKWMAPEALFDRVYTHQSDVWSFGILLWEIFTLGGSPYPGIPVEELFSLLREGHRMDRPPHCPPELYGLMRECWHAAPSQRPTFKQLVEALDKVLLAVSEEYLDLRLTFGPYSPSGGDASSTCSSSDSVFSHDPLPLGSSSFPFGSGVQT

[3] = target: T1, Tyrosine-protein kinase receptor TYRO3 (Homo sapiens) (UniProt Q06418); test: Inhibition of human RSE assessed as residual activity at 1 uM relative to control
T1 sequence (whole entry): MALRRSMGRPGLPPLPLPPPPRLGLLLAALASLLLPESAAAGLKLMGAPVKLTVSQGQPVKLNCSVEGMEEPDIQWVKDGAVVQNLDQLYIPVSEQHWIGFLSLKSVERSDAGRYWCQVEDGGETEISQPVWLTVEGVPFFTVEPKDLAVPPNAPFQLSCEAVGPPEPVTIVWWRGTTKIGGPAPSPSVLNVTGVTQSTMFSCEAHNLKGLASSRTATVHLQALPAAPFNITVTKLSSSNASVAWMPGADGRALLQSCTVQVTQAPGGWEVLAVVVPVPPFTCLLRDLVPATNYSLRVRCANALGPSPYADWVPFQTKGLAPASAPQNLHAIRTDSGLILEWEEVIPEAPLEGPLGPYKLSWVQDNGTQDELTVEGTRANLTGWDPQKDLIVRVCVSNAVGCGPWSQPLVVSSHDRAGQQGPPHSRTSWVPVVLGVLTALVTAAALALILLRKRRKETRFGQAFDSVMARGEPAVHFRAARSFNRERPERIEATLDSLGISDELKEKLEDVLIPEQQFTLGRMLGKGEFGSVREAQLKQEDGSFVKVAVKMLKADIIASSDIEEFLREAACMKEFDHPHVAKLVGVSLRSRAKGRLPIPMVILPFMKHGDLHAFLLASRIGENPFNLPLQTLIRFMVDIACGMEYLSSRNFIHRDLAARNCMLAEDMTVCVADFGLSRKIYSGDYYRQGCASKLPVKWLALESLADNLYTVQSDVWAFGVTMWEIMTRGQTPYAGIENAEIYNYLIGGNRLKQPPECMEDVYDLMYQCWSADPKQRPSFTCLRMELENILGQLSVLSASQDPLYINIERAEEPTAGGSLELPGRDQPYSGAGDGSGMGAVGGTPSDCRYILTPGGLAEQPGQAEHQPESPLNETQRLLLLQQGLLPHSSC

Homo sapiens = species: Homo sapiens; test: Inhibition of human PKA assessed as residual activity at 1 uM relative to control
[4] = target: Casein kinase I isoform gamma-1 (Homo sapiens) (UniProt Q9HCP0); test: Inhibition of human CK1gamma1 assessed as residual activity at 1 uM relative to control
Sequence of Casein kinase I isoform gamma-1 (Homo sapiens) (Q9HCP0 whole entry, looked up, canonical isoform): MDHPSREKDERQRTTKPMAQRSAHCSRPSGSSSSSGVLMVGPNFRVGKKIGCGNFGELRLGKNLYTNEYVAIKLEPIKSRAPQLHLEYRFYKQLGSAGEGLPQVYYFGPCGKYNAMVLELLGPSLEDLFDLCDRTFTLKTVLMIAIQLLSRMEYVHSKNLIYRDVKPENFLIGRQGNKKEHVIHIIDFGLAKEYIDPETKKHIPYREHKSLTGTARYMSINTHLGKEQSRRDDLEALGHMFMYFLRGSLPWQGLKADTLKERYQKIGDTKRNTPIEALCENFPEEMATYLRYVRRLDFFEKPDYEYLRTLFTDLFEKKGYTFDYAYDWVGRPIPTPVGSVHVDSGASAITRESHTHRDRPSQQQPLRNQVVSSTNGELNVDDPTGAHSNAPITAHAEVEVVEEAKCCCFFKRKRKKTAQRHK

[5] = target: Serine/threonine-protein kinase PLK1 (Homo sapiens) (UniProt P53350); test: Inhibition of human PLK1 assessed as residual activity at 1 uM relative to control
Sequence of Serine/threonine-protein kinase PLK1 (Homo sapiens) (P53350 whole entry): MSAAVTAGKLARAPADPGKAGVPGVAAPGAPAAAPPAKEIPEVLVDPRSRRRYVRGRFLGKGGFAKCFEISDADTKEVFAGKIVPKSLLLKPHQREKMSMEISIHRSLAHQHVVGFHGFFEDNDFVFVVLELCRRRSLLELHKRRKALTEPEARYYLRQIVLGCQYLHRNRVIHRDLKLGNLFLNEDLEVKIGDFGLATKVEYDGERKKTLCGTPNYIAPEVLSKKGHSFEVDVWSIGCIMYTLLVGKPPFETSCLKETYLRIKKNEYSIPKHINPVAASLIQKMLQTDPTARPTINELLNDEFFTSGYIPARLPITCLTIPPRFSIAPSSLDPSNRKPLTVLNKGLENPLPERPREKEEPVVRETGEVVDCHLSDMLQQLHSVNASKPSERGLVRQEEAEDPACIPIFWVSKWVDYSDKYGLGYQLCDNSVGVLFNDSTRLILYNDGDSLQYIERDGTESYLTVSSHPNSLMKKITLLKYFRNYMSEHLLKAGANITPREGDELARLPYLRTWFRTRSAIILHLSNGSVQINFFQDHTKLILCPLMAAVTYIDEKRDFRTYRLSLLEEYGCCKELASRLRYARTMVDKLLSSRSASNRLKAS

[6] = target: T2, Tyrosine-protein kinase JAK3 (Homo sapiens) (UniProt P52333); test: Inhibition of human JAK3 assessed as residual activity at 1 uM relative to control
T2 sequence (whole entry): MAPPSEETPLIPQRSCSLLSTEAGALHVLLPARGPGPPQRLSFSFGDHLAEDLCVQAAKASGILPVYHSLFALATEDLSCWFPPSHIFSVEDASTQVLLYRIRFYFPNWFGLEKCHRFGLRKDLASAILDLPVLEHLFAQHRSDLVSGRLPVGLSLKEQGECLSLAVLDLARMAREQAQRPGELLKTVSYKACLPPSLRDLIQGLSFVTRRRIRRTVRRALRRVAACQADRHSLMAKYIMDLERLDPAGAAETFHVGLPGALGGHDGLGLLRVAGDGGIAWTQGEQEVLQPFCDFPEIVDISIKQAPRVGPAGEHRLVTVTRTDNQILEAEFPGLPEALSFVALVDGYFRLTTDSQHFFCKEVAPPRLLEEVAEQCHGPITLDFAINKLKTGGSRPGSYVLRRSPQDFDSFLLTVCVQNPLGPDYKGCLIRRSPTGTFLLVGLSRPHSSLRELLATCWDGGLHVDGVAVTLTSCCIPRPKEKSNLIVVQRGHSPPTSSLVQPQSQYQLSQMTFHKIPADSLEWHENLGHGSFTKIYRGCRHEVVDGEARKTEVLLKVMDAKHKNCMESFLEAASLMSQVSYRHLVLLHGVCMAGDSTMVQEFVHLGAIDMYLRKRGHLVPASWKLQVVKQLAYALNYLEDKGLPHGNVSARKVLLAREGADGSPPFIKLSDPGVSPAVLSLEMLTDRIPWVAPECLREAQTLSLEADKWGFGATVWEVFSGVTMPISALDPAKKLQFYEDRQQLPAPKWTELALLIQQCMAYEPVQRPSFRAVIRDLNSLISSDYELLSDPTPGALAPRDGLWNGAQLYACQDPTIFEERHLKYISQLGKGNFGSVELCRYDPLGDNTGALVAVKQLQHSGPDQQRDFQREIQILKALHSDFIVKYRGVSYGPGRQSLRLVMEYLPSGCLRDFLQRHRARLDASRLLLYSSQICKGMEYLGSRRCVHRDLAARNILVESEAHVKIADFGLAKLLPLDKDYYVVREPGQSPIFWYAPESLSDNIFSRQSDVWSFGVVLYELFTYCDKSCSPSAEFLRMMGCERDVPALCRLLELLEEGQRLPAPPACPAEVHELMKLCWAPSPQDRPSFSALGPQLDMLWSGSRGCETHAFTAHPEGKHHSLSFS

[7] = target: Dual specificity mitogen-activated protein kinase kinase 1 (Homo sapiens) (UniProt Q02750); test: Inhibition of human MEK1 assessed as residual activity at 1 uM relative to control
[8] = target: Receptor tyrosine-protein kinase erbB-4 (Homo sapiens) (UniProt Q15303); test: Inhibition of human ERBB4 assessed as residual activity at 1 uM relative to control
Sequence of Receptor tyrosine-protein kinase erbB-4 (Homo sapiens) (Q15303 whole entry): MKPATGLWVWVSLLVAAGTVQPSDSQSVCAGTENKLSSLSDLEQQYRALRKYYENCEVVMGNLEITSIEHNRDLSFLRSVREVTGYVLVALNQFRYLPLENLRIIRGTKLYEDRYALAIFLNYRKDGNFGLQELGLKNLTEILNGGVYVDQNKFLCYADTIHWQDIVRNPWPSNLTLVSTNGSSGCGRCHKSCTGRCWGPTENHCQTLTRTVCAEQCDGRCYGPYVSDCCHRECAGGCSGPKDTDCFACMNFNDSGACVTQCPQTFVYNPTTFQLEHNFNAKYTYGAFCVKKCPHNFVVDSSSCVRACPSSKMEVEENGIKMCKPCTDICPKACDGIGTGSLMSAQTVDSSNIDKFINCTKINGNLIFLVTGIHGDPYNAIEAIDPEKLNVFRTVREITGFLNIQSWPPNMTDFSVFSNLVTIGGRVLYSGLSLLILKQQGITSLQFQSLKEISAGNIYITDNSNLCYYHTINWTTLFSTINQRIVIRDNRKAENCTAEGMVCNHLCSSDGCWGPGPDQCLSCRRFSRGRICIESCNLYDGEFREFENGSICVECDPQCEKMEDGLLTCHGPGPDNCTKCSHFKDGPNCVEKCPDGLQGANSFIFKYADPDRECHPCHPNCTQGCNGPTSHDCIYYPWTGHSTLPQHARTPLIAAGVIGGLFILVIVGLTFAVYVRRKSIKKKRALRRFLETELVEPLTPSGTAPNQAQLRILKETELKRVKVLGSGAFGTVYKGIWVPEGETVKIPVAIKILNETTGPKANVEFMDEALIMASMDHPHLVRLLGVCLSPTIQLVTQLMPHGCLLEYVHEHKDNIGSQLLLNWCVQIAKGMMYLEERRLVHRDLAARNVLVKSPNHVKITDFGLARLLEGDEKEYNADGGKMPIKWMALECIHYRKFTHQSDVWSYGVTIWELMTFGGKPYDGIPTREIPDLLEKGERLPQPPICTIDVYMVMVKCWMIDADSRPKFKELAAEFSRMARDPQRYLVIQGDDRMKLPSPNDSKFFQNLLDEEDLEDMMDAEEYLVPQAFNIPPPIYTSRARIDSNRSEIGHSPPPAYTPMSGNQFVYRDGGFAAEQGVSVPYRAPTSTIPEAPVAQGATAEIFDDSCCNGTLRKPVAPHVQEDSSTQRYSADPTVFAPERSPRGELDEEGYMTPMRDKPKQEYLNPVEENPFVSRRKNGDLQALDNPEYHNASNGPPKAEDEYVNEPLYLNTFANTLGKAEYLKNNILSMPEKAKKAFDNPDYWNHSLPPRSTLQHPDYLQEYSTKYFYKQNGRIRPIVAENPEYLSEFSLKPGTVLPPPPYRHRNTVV

[9] = target: RAC-alpha serine/threonine-protein kinase (Homo sapiens) (UniProt P31749); test: Inhibition of human PKBalpha assessed as residual activity at 1 uM relative to control
[10] = target: MAP kinase-activated protein kinase 2 (Homo sapiens) (UniProt P49137); test: Inhibition of human MAPKAP-K2 assessed as residual activity at 1 uM relative to control
Sequence of MAP kinase-activated protein kinase 2 (Homo sapiens) (P49137 whole entry, looked up): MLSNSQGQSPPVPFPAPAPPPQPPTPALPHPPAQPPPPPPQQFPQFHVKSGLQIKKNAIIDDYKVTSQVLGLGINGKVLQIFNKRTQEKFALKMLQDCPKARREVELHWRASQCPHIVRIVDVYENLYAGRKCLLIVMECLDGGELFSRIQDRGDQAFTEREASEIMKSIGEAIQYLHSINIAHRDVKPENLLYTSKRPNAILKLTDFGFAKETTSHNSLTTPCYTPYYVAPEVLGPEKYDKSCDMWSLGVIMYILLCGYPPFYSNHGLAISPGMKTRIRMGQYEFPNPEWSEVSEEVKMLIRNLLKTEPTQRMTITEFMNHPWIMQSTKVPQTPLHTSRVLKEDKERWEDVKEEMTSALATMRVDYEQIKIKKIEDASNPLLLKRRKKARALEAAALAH

[11] = target: Vascular endothelial growth factor receptor 1 (Homo sapiens) (UniProt P17948); test: Inhibition of human FLT1 assessed as residual activity at 1 uM relative to control
Sequence of Vascular endothelial growth factor receptor 1 (Homo sapiens) (P17948 whole entry): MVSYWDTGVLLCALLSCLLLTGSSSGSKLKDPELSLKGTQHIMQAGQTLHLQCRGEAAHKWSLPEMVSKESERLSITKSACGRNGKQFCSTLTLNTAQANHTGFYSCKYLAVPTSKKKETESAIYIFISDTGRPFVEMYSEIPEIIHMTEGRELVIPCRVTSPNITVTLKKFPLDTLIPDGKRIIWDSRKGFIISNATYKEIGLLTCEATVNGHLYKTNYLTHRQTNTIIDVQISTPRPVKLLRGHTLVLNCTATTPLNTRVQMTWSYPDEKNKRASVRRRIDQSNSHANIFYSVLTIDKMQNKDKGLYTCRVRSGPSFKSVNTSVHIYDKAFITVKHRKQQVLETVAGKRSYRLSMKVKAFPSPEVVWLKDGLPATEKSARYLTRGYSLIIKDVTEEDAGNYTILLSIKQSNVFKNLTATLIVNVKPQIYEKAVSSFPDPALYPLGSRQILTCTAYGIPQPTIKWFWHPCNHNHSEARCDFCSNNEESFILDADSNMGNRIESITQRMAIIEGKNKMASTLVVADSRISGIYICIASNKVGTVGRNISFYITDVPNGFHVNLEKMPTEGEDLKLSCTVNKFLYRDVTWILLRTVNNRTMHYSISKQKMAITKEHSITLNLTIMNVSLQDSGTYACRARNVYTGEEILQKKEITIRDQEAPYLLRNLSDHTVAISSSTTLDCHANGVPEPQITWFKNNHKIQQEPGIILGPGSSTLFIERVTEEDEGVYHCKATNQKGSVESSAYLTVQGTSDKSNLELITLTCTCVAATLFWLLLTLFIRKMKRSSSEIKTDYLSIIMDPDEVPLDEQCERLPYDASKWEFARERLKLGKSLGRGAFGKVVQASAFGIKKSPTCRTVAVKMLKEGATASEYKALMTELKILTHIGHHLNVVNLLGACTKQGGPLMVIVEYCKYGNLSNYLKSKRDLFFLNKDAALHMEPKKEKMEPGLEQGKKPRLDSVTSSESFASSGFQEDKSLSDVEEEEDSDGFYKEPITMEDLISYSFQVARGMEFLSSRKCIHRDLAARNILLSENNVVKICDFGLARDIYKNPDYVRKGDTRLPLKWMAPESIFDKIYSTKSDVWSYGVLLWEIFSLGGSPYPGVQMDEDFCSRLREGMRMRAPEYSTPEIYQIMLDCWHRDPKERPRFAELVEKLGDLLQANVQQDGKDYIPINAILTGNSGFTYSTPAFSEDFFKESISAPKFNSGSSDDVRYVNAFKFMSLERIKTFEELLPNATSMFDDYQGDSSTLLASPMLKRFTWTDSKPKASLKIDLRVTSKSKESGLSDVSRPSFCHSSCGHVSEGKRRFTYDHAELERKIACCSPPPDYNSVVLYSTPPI

| SMILES | Activity [1] | Activity [2] | Activity [3] | Activity (Homo sapiens) | Activity [4] | Activity [5] | Activity [6] | Activity [7] | Activity [8] | Activity [9] | Activity [10] | Activity [11] |
| --- | --- | --- | --- | --- | --- | --- | --- | --- | --- | --- | --- | --- |
| COc1ccc(-c2nc3cc(-c4csc(C(=O)NCC(C)(C)C)c4)cnc3[nH]2)cc1 | 90% | 109% | 104% | 82% | 65% | 110% | 94% | 89% | 91% | 107% | 98% | 24% |
| COc1ccc(-c2nc3cc(-c4csc(C(=O)NCCC(C)C)c4)cnc3[nH]2)cc1 | 93% | 102% | 104% | 97% | 29% | 112% | 96% | 90% | 93% | 111% | 94% | 22% |
| COc1ccc(-c2nc3cc(-c4csc(C(=O)NCC(C)C)c4)cnc3[nH]2)cc1 | 98% | 109% | 112% | 89% | 44% | 105% | 91% | 86% | 98% | 119% | 101% | 10% |
